Results taken from patent US10076519B2 (CYTOKINETICS, INC., priority 2010, dated 2018).

tested on: rabbit skeletal myofibrils (fast skeletal myofibrils); experiment: Activation of fast skeletal myofibrils (PUMA assay, PK/LDH-coupled ATPase at pCa25); format: biochemical; details: AC1.4 determined according to the procedure of Example 39; reported as class symbols
Procedure, shortened: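 ATPase activity of Triton-washed rabbit skeletal myofibrils, roughly 90% fast fibres, tracked by NADH loss at 340 nm through a PK/LDH-coupled ADP-regenerating system. Calcium set to 25% of maximal activity (pCa25), in PIPES 12 mM pH 6.8 with 2 mM MgCl2 and 1 mM DTT; AC1.4 reported.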

| Compound | Mean AC1.4 |
| --- | --- |
| CC(C)(CNc1ccc(-c2ccc(C(=O)O)c(F)c2)nn1)c1ccc(F)cc1 [2-fluoro-4-(6-{[2-(4-fluorophenyl)-2-methylpropyl]amino}pyridazin-3-yl)benzoic acid] | D (D=>20 uM) |

same assay, conditions: median AC1.4 class, procedure of Example 39

| Compound | Mean AC1.4 |
| --- | --- |
| Cc1nc(-c2ccc(NCC3(c4ncccc4F)CCC3)nn2)sc1C(N)=O [2-[6-({[(3-fluoro(2-pyridyl))cyclobutyl]methyl}ami-no)pyridazin-3-yl]-4-methyl-1,3-thiazole-5-carboxamide] | B (B=1-10 uM) |
| CS(=O)(=O)N1Cc2nc(-c3ccc(NCC4(c5ncccc5F)CCC4)nn3)sc2C1 [2-[6-({[(3-fluoro(2-pyridyl))cyclobutyl]methyl}ami-no)pyridazin-3-yl]-5-(methylsulfonyl)-3-pyrrolino[3,4-d]1,3-thiazole] | D (D=>20 uM) |
| N#Cc1cnc(-c2ccc(NCC3(c4ncccc4F)CCC3)nn2)s1 [2-[6-({[(3-fluoro-2-pyridyl)cyclobutyl]methyl}ami-no)pyridazin-3-yl]-1,3-thiazole-5-carbonitrile] | B (B=1-10 uM) |
| O=C(O)c1cnc(-c2ccc(NCC3(c4ncccc4F)CCC3)nn2)s1 [2-[6-({[(3-fluoro-2-pyridyl)cyclobutyl]methyl}ami-no)pyridazin-3-yl]-1,3-thiazole-5-carboxylic acid] | C (C=10-20 uM) |
| NS(=O)(=O)c1cnc(-c2ccc(NCC3(c4ncccc4F)CCC3)nn2)s1 [2-[6-({[(3-fluoro-2-pyridyl)cyclobutyl]methyl}ami-no)pyridazin-3-yl]-1,3-thiazole-5-sulfonamide] | B (B=1-10 uM) |
| Oc1ccc2nc(-c3ccc(NCC4(c5ncccc5F)CCC4)nn3)sc2n1 [2-[6-({[(3-fluoro-2-pyridyl)cyclobutyl]methyl}ami-no)pyridazin-3-yl]-1,3-thiazolino[5,4-b]pyridin-5-ol] | B (B=1-10 uM) |
| NC(=O)c1ccc2nc(-c3ccc(NCC4(c5ncccc5F)CCC4)nn3)sc2n1 [2-[6-({[(3-fluoro-2-pyridyl)cyclobutyl]methyl}ami-no)pyridazin-3-yl]-1,3-thiazolino[5,4-b]pyridine-5-carboxamide] | D (D=>20 uM) |
| NC(=O)c1c[nH]c(-c2ccc(NCC3(c4ncccc4F)CCC3)nn2)n1 [2-[6-({[(3-fluoro-2-pyridyl)cyclobutyl]methyl}ami-no)pyridazin-3-yl]imidazole-4-carboxamide] | B (B=1-10 uM) |
| NC(=O)c1ccnc(-c2ccc(NCC3(c4ncccc4F)CCC3)nn2)n1 [2-[6-({[(3-fluoro-2-pyridyl)cyclobutyl]methyl}ami-no)pyridazin-3-yl]pyrimidine-4-carboxamide] | A (A=<1 uM) |
| O=C1NCc2cc(-c3ccc(NCC4(c5ncccc5F)CCC4)nn3)sc21 [2-[6-({[(3-fluoro-2-pyridyl)cyclobutyl]methyl}ami-no)pyridazin-3-yl]thiopheno[2,3-c]3-pyrrolin-6-one] | B (B=1-10 uM) |
| NC(=O)CNCc1cnc(-c2ccc(NCC3(c4ncccc4F)CCC3)nn2)s1 [2-[({2-[6-({[(3-fluoro-2-pyridyl)cyclobutyl]methyl}ami-no)pyridazin-3-yl]-1,3-thiazol-5-yl}methyl)amino]acetamide] | B (B=1-10 uM) |
| CC(C)(N)C(=O)NCc1cnc(-c2ccc(NCC3(c4ncccc4F)CCC3)nn2)s1 [2-amino-N-({2-[6-({[(3-fluoro(2-pyridyl))cyclobutyl]methyl}ami-no)pyridazin-3-yl](1,3-thiazol-5-yl)}methyl)-2-methylpropanamide] | A (A=<1 uM) |
| NCC(=O)NCc1cnc(-c2ccc(NCC3(c4ncccc4F)CCC3)nn2)s1 [2-amino-N-({2-[6-({[(3-fluoro(2-pyridyl))cyclobutyl]methyl}ami-no)pyridazin-3-yl](1,3-thiazol-5-yl)}methyl)acetamide] | A (A=<1 uM) |

same assay, conditions: median AC1.4 reported as class; procedure of Example 39

| Compound | Mean AC1.4 |
| --- | --- |
| CS(=O)(=O)N1CCc2nc(-c3ccc(NCC4(c5ncccc5F)CCC4)nn3)sc2C1 [2-[6-({[(3-fluoro(2-pyridyl))cyclobutyl]methyl}ami-no)pyridazin-3-yl]-5-(methylsulfonyl)-4,5,6,7-tetrahydro-1,3-thiazolo[5,4-c]pyridine] | D (D=>20 uM) |
| Cc1cc(NCC2(c3ncccc3F)CCC2)nnc1-c1ncc(C(N)=O)s1 [2-[6-({[(3-fluoro(2-pyridyl))cyclobutyl]methyl}amino)-4-methylpyridazin-3-yl]-1,3-thiazole-5-carboxamide] | A (A=<1 uM) |
| NC(=O)N1CCc2nc(-c3ccc(NCC4(c5ncccc5F)CCC4)nn3)sc2C1 [2-[6-({[(3-fluoro-2-pyridyl)cyclobutyl]methyl}ami-no)pyridazin-3-yl]-4,5,6,7-tetrahydro-1,3-thiazolo[5,4-c]pyridine-5-carboxamide] | D (D=>20 uM) |
| NC(=O)C1CCc2sc(-c3ccc(NCC4(c5ncccc5F)CCC4)nn3)nc21 (centres unmarked) [2-[6-({[(3-fluoro-2-pyridyl)cyclobutyl]methyl}ami-no)pyridazin-3-yl]-4,5,6-trihydrocyclopenta[1,2-d]1,3-thiazole-4-carboxamide] | D (D=>20 uM) |
| O=C(O)C1CCc2sc(-c3ccc(NCC4(c5ncccc5F)CCC4)nn3)nc21 (centres unmarked) [2-[6-({[(3-fluoro-2-pyridyl)cyclobutyl]methyl}ami-no)pyridazin-3-yl]-4,5,6-trihydrocyclopenta[1,2-d]1,3-thiazole-4-carboxylic acid] | D (D=>20 uM) |
| OCCNCc1cnc(-c2ccc(NCC3(c4ncccc4F)CCC3)nn2)s1 [2-[({2-[6-({[(3-fluoro-2-pyridyl)cyclobutyl]methyl}ami-no)pyridazin-3-yl]-1,3-thiazol-5-yl}methyl)amino]ethan-1-ol] | B (B=1-10 uM) |
| CN(Cc1cnc(-c2ccc(NCC3(c4ncccc4F)CCC3)nn2)s1)C(=O)C(C)(C)N [2-amino-N-({2-[6-({[(3-fluoro(2-pyridyl))cyclobutyl]methyl}ami-no)pyridazin-3-yl](1,3-thiazol-5-yl)}methyl)-2-methyl-N-methylpropanamide] | A (A=<1 uM) |
| CC(C)(N)C(=O)NCc1cnc(-c2ccc(NCC(C)(C)c3ncccc3Cl)nn2)s1 [2-amino-N-{[2-(6-{[2-(3-chloro(2-pyridyl))-2-methylpropyl]amino}pyridazin-3-yl)(1,3-thiazol-5-yl)]methyl}-2-methylpropanamide] | A (A=<1 uM) |
| O=C(O)c1cc(-c2ccc(NC[C@]3(c4ncccc4F)C[C@H](F)C3)nn2)ccc1F [2-fluoro-5-[6-({[3-fluoro-1-(3-fluoro(2-pyridyl))cyclobutyl]methyl}ami-no)pyridazin-3-yl]benzoic acid] | B (B=1-10 uM) |
| NC(=O)Cc1cnc(-c2ccc(NC[C@]3(c4ncccc4Cl)C[C@H](F)C3)nn2)s1 [2-{2-[6-({[1-(3-chloro(2-pyridyl))-3-fluorocyclobutyl]methyl}ami-no)pyridazin-3-yl]-1,3-thiazol-5-yl}acetamide] | B (B=1-10 uM) |
| CNC(=O)Cc1cnc(-c2ccc(NC[C@]3(c4ncccc4Cl)C[C@H](F)C3)nn2)s1 [2-{2-[6-({[1-(3-chloro(2-pyridyl))-3-fluorocyclobutyl]methyl}amino)pyr-idazin-3-yl](1,3-thiazol-5-yl)}-N-methylacetamide] | B (B=1-10 uM) |
| NC(=O)Cc1cnc(-c2ccc(NC[C@]3(c4ncccc4F)C[C@H](F)C3)nn2)s1 [2-{2-[6-({[3-fluoro-1-(3-fluoro(2-pyridyl))cyclobutyl]methyl}ami-no)pyridazin-3-yl]-1,3-thiazol-5-yl}acetamide] | B (B=1-10 uM) |
| O=C(O)Cc1cnc(-c2ccc(NC[C@]3(c4ncccc4F)C[C@H](F)C3)nn2)s1 [2-{2-[6-({[3-fluoro-1-(3-fluoro(2-pyridyl))cyclobutyl]methyl}ami-no)pyridazin-3-yl]-1,3-thiazol-5-yl}acetic acid] | B (B=1-10 uM) |
| CNC(=O)Cc1cnc(-c2ccc(NCC3(c4ncccc4Cl)CCC3)nn2)s1 [2-{2-[6-({[(3-chloro(2-pyridyl))cyclobutyl]methyl}ami-no)pyridazin-3-yl](1,3-thiazol-5-yl)}-N-methylacetamide] | A (A=<1 uM) |
| NC(=O)Cc1cnc(-c2ccc(NCC3(c4ncccc4Cl)CCC3)nn2)s1 [2-{2-[6-({[(3-chloro-2-pyridyl)cyclobutyl]methyl}ami-no)pyridazin-3-yl]-1,3-thiazol-5-yl}acetamide] | A (A=<1 uM) |
| CC(C)(C(N)=O)c1cnc(-c2ccc(NCC3(c4ncccc4F)CCC3)nn2)s1 [2-{2-[6-({[(3-fluoro(2-pyridyl))cyclobutyl]methyl}ami-no)pyridazin-3-yl](1,3-thiazol-5-yl)}-2-methylpropanamide] | D (D=>20 uM) |
| CC(C)(C#N)c1cnc(-c2ccc(NCC3(c4ncccc4F)CCC3)nn2)s1 [2-{2-[6-({[(3-fluoro(2-pyridyl))cyclobutyl]methyl}ami-no)pyridazin-3-yl](1,3-thiazol-5-yl)}-2-methylpropanenitrile] | D (D=>20 uM) |
| CN(C)C(=O)Cc1cnc(-c2ccc(NCC3(c4ncccc4F)CCC3)nn2)s1 [2-{2-[6-({[(3-fluoro(2-pyridyl))cyclobutyl]methyl}ami-no)pyridazin-3-yl](1,3-thiazol-5-yl)}-N,N-dimethylacetamide] | B (B=1-10 uM) |
| CNC(=O)Cc1cnc(-c2ccc(NCC3(c4ncccc4F)CCC3)nn2)s1 [2-{2-[6-({[(3-fluoro(2-pyridyl))cyclobutyl]methyl}ami-no)pyridazin-3-yl](1,3-thiazol-5-yl)}-N-methylacetamide] | B (B=1-10 uM) |
| CNC(=O)Cc1cnc(-c2nnc(NCC3(c4ncccc4F)CCC3)cc2C)s1 [2-{2-[6-({[(3-fluoro(2-pyridyl))cyclobutyl]methyl}amino)-4-methylpyridazin-3-yl](1,3-thiazol-5-yl)}-N-methylacetamide] | B (B=1-10 uM) |
| Cc1cc(NCC2(c3ncccc3F)CCC2)nnc1-c1ncc(CC(N)=O)s1 [2-{2-[6-({[(3-fluoro(2-pyridyl))cyclobutyl]methyl}amino)-4-methylpyridazin-3-yl]-1,3-thiazol-5-yl}acetamide] | B (B=1-10 uM) |
